Values quoted from earlier work as cited in patent US20200237789A1, “COMBINATION THERAPY FOR PREVENTING ADDICTION” (Amygdala Neurosciences, Inc., priority 2017, published 2020).

Columns and labels:
[1] = biological target: T1, hMAO-A (Homo sapiens, UniProt P21397); details: read-out: IC50 hMAO-A
T1 sequence (P21397 1-527): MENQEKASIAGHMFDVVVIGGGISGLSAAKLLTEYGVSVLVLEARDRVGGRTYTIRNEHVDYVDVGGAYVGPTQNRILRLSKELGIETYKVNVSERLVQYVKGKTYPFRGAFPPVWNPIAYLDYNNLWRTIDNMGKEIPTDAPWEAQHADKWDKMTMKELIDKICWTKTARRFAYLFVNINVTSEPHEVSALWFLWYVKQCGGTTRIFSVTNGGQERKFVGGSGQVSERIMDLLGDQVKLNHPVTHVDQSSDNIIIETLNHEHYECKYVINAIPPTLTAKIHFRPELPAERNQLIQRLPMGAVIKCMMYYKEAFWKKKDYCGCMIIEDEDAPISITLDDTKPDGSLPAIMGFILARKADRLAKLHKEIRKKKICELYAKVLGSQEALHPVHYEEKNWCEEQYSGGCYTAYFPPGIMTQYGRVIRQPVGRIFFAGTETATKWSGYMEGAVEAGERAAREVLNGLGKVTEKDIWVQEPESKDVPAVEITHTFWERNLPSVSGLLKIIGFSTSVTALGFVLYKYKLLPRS

[2] = biological target: T2, hMAO-B (Homo sapiens, UniProt P27338); details: read-out: IC50 hMAO-B
T2 sequence (P27338 1-520): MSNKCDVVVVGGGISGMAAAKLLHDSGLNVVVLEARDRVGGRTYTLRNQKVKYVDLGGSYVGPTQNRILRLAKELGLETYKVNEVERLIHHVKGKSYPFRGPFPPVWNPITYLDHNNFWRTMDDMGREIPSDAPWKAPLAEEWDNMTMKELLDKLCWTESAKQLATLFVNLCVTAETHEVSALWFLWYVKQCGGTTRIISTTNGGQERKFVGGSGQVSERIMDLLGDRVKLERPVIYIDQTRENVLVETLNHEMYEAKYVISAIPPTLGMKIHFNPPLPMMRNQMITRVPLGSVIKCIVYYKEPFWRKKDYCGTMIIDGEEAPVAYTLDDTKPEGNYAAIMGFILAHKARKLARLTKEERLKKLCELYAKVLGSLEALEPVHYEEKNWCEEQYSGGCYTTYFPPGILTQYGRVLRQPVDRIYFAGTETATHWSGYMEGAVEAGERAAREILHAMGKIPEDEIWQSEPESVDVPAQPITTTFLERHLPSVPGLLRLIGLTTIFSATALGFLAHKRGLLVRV

[3] = biological target: T3, human ALDH-2 enzyme (Homo sapiens, UniProt P05091); details: read-out: IC50 ALDH-2
T3 sequence (P05091 18-517): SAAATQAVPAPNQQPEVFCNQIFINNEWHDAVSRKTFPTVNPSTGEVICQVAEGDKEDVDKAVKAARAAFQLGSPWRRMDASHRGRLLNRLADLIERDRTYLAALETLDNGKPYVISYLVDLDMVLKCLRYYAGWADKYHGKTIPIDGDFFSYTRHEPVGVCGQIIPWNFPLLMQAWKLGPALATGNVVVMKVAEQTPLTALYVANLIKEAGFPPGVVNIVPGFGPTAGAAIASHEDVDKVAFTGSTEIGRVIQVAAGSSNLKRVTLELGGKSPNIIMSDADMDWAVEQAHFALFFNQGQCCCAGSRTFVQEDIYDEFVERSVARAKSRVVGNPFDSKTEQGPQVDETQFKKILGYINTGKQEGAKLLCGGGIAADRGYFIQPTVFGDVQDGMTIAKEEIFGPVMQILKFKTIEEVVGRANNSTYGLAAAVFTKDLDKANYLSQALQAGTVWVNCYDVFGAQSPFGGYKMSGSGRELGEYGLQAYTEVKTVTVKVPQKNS

SMILES | IC50 [1] [µM] | IC50 [2] [µM] | IC50 [3] [µM]
COCCOc1cc(Cl)c(C(=O)NCc2ccc(-c3cc[nH]c(=O)c3)cc2)c(Cl)c1 [(3), 2,6-dichloro-4-(2-methoxyethoxy)-N-(4-(2-oxo-1,2-dihydropyridin-4-yl)benzyl)benzamide] | > 130 | > 130 | –
O=C(NCc1ccc(-c2cc[nH]c(=O)c2)cc1)c1cccc(F)c1Cl [(4), 2-chloro-3-fluoro-N-(4-(2-oxo-1,2-dihydropyridin-4-yl)benzyl)benzamide] | > 130 | > 130 | –
Cc1cccc(Cl)c1C(=O)NCc1ccc(-c2cc[nH]c(=O)c2)cc1 [(5), 2-chloro-6-methyl-N-(4-(2-oxo-1,2-dihydropyridin-4-yl)benzyl)benzamide] | > 130 | > 130 | –
Cc1cccc(C)c1C(=O)NCc1ccc(-c2cc[nH]c(=O)c2)cc1 [(6), 2,6-dimethyl-N-(4-(2-oxo-1,2-dihydropyridin-4-yl)benzyl)benzamide] | > 130 | > 130 | –
Cc1cc(-c2ccc(CNC(=O)c3c(Cl)cccc3Cl)cc2)cc(=O)[nH]1 [(7), 2,6-dichloro-N-[4-(6-methyl-2-oxo-1,2-dihydro-pyridin-4-yl)-benzyl]-benzamide] | > 130 | > 130 | –
O=C(NCc1ccc(-c2cc[nH]c(=O)c2)cc1)c1c(F)ccc(F)c1Cl [(8), 2-chloro-3,6-difluoro-N-(4-(2-oxo-1,2-dihydropyridin-4-yl)benzyl)benzamide] | > 130 | > 130 | –
Cc1cc(CNC(=O)c2c(Cl)cccc2Cl)ccc1-c1cc[nH]c(=O)c1 [(9), 2,6-dichloro-N-(3-methyl-4-(2-oxo-1,2-dihydropyridin-4-yl)benzyl)benzamide] | > 130 | > 130 | –
Cn1ccc(-c2ccc(CNC(=O)c3c(Cl)cccc3Cl)cc2)cc1=O [(10), 2,6-dichloro-N-(4-(1-methyl-2-oxo-1,2-dihydropyridin-4-yl)benzyl)benzamide] | > 130 | > 130 | –
O=C(NCc1ccc(-c2cc[nH]c(=O)c2)cc1)c1c(F)cccc1F [(11), 2,6-difluoro-N-(4-(2-oxo-1,2-dihydropyridin-4-yl)benzyl)benzamide] | > 130 | > 130 | –
O=C(NCc1ccc(-c2cc[nH]c(=O)c2)cc1)c1c(F)cccc1Cl [(12), 2-chloro-6-fluoro-N-(4-(2-oxo-1,2-dihydropyridin-4-yl)benzyl)benzamide] | > 130 | > 130 | –
O=C(NCc1ccc(-c2cc[nH]c(=O)c2)cc1F)c1c(Cl)cccc1Cl [(13), 2,6-dichloro-N-(2-fluoro-4-(2-oxo-1,2-dihydropyridin-4-yl)benzyl)benzamide] | > 130 | > 130 | –
O=C(NCc1ccc(-c2cc(=O)[nH]cc2F)cc1)c1c(Cl)cccc1Cl [(14), 2,6-dichloro-N-(4-(5-fluoro-2-oxo-1,2-dihydropyridin-4-yl)benzyl)benzamide] | > 130 | > 130 | –
O=C(NCc1ccc(-c2cc[nH]c(=O)c2)cc1)c1c(Cl)cccc1Cl [compound (1), 2,6-dichloro-N-[4-(2-oxo-1,2-dihydro-pyridin-4-yl)-benzyl]-benzamide] | > 130 | > 130 | –
O=C(NCc1ccc(-c2ccn(COP(=O)(O)O)c(=O)c2)cc1)c1c(Cl)cccc1Cl [compound (2), phosphoric acid mono-(4-{4-[(2,6-dichloro-benzoylamino)-methyl]-phenyl}-2-oxo-2H-pyridin-1-ylmethyl) ester] | > 130 | > 130 | > 10
